ChEMBL document CHEMBL3603826, “6-Arylpyrazine-2-carboxamides: A New Core for Trypanosoma brucei Inhibitors” (J Med Chem, 2015)
Converted amounts (≈) assume the structure as drawn.

Legend:
[1] = Partition coefficient, logD of the compound at pH 7.4 by HPLC method; format: physicochemical; conditions: octanol/water
[2] = Apparent half life in Swiss mouse at 1.8 mg/kg, iv by LC-MS method; format: ADME, organism-based; conditions: in vivo, read-out: t1/2(app) (converted)
[3] = Intrinsic clearance in human liver microsomes assessed per mg protein at pH 7.4 at 0.5 uM in presence of NADPH regenerating system by LC-MS method; format: ADME; conditions: read-out: CLH
[4] = Selectivity index, ratio of cytotoxic IC50 for rat L6 cells to EC50 for anti-parasitic activity against Trypanosoma brucei rhodesiense STIB 900; format: toxicity, cell-based; conditions: read-out: Ratio IC50/EC50
[5] = tested on: Plasmodium falciparum; experiment: Anti-parasitic activity against chloroquine and pyrimethamine resistant Plasmodium falciparum K1 erythrocytic stages infected in human erythrocytes incubated for 48 hrs by [3H]-hypoxanthine incorporation assay; format: functional, organism-based
[6] = Kinetic solubility in pH 2.0 0.01M HCl buffer by nephelometry; format: physicochemical; conditions: read-out: Kinetic_solubility
[7] = tested on: Leishmania donovani; experiment: Anti-parasitic activity against Leishmania donovani MHOM/ET/67/L82 axenic amastigotes incubated for 70 hrs by alamar blue dye based assay; format: functional, organism-based; conditions: MHOM/ET/67/L82, 70 h
[8] = tested on: Trypanosoma brucei brucei; experiment: Anti-parasitic activity against Trypanosoma brucei brucei 427 bloodstream parasites incubated for 48 hrs by alamar blue dye based assay; format: functional, organism-based; conditions: Trypanosoma brucei, 427, 48 h
[9] = Selectivity index, ratio of cytotoxic IC50 for HEK293 cells to EC50 for anti-parasitic activity against Trypanosoma brucei brucei 427 bloodstream parasites; format: toxicity, cell-based; conditions: human, read-out: Ratio IC50/EC50
[10] = tested on: Trypanosoma cruzi; experiment: Anti-parasitic activity against Trypanosoma cruzi Tulahuen C2C4 trypomastigotes infected rat L6 cells incubated for 96 hrs by CPRG/nonidet substrate based […]; format: functional, organism-based; conditions: Tulahuen C2C4, L6, 96 h
[11] = tested on: Mus musculus; experiment: Blood clearance in Swiss mouse at 1.8 mg/kg, iv by LC-MS method relative to hepatic blood flow; format: ADME, organism-based, Liver; conditions: in vivo
[12] = Kinetic solubility in pH 6.5 phosphate buffer by nephelometry; format: physicochemical; conditions: read-out: Kinetic_solubility
[13] = Toxicity against rat L6 cells incubated for 70 hrs by alamar blue dye based assay; format: cell-based
[14] = Stability assessed as degradation half life; format: physicochemical
[15] = Volume of distribution in Swiss mouse at 1.8 mg/kg, iv by LC-MS method; format: ADME, organism-based; conditions: in vivo
[16] = molecular target: serum albumin (Homo sapiens, UniProt P02768); experiment: Binding affinity to human serum albumin by chromatographic method; format: ADME; conditions: read-out: PB (converted)
Sequence of serum albumin (P02768 whole entry): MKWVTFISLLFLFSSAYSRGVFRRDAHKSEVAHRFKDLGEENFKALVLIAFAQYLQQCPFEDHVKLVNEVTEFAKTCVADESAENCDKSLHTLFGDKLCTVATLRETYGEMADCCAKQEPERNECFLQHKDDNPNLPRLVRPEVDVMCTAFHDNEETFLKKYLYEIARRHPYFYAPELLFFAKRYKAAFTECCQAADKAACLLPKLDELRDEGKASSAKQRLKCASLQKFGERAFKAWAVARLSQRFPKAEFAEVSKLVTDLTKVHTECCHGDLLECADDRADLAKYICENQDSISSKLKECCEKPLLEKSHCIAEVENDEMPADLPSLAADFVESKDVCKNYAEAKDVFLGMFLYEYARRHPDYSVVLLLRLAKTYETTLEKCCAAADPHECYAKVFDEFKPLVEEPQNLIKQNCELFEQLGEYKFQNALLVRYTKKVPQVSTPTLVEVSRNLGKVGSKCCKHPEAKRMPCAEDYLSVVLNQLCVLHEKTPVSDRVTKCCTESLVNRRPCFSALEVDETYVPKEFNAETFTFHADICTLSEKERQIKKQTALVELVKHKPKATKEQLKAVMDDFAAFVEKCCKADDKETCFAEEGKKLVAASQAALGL

[17] = Blood clearance in Swiss mouse at 1.8 mg/kg, iv by LC-MS method; format: ADME, organism-based; conditions: whole blood
[18] = tested on: Trypanosoma brucei rhodesiense; experiment: Anti-parasitic activity against Trypanosoma brucei rhodesiense STIB 900 trypomastigotes incubated for 70 hrs by alamar blue dye based assay; format: functional, organism-based; conditions: STIB 900, 70 h
[19] = Drug stability in human liver microsomes assessed as parent compound loss after 60 mins at 10 uM absence of NADPH regenerating system and UDPGA by LC-MS method; format: ADME; conditions: read-out: Drug degradation
[20] = tested on: Liver microsome; experiment: Drug metabolism in human liver microsomes assessed as oxygenated metabolite formation after 60 mins at 10 uM presence of NADPH regenerating system by LC-MS method; format: ADME; conditions: 1 h
[21] = Drug metabolism in human liver microsomes after 60 mins at 10 uM presence of NADPH regenerating system by LC-MS method; format: ADME; conditions: read-out: Drug metabolism
[22] = tested on: Liver microsome; experiment: Drug metabolism in human liver microsomes assessed as oxygenated metabolite formation after 60 mins at 10 uM presence of NADPH regenerating system and UDPGA by LC-MS method; format: ADME; conditions: 1 h
[23] = tested on: Liver microsome; experiment: Drug metabolism in human liver microsomes assessed as N-oxide metabolite formation after 60 mins at 10 uM absence of NADPH regenerating system and UDPGA by LC-MS method; format: ADME; conditions: 1 h
[24] = tested on: Liver microsome; experiment: Drug level in human liver microsomes treated with 10 uM 3-Amino-N-cyclopentyl-6-(m-tolyl)pyrazine-2-carboxamide assessed as compound formation after 60 mins presence of NADPH regenerating system by LC-MS method; format: ADME; conditions: 1 h
[25] = tested on: Liver microsome; experiment: Drug level in human liver microsomes treated with 10 uM 3-Amino-N-cyclopentyl-6-(m-tolyl)pyrazine-2-carboxamide assessed as compound formation after 60 mins absence of NADPH regenerating system and UDPGA by LC-MS method; format: ADME; conditions: 1 h
[26] = tested on: Liver microsome; experiment: Drug level in human liver microsomes treated with 10 uM 3-Amino-N-cyclopentyl-6-(m-tolyl)pyrazine-2-carboxamide assessed as compound formation after 60 mins presence of NADPH regenerating system and UDPGA by LC-MS method; format: ADME; conditions: 1 h

In the case of `CCC(CC)NC(=O)c1nc(-c2ccc(F)cc2)cnc1N`, the logD [1] is reported as 4.4, the half-life [2] is reported as 546 min and the microsomal CLint at 0.5 µM [3] is reported as 84 µL/min/mg. The selectivity ratio [4] was 540, the EC50 [5] was 7.6 µM and the solubility kinetic [6] was 3.1 µg/mL (≈ 10.3 µM). For the same molecule, the EC50 [7] was > 10 µM, the EC50 [8] was 0.08 µM and the selectivity ratio [9] was 1024. The EC50 [10] was 15 µM, the CL [11] was 60% and the solubility kinetic [12] was 3.1 µg/mL (≈ 10.3 µM). For the same molecule, the IC50 at 70 h [13] was 28 µM, the half-life [14] was 21 min and the Vd [15] was 14.7 L/kg. The fraction unbound [16] was 0.036, the clearance [17] was 69 mL/min/kg and the EC50 [18] was 0.053 µM.
In the case of `Cc1cccc(-c2cnc(N)c(C(=O)NC3CCCC3)n2)c1`, the logD [1] is reported as 4.6, the microsomal CLint at 0.5 µM [3] is reported as 266 µL/min/mg and the selectivity ratio [4] is reported as 1790. For the same molecule, the metabolised at 1 h, 10 µM [19] was 6%, the EC50 [5] was 4.9 µM and the solubility kinetic [6] was 3.1 µg/mL (≈ 10.5 µM). For the same molecule, the Drug metabolism [20] was “metabolite_detected”, the EC50 [7] was > 10 µM and the EC50 [8] was 0.035 µM. For the same molecule, the metabolised at 1 h, 10 µM [21] was 92%, the selectivity ratio [9] was 2380 and the EC50 [10] was 17 µM. The solubility kinetic [12] was 3.1 µg/mL (≈ 10.5 µM), the Drug metabolism [22] was “metabolite_detected” and the IC50 at 70 h [13] was 42 µM. The half-life [14] was 7 min, the fraction unbound [16] was 0.023 and the Drug metabolism [23] was “metabolite_detected”. The EC50 [18] was 0.024 µM.
In the case of `Cc1cccc(-c2c[n+]([O-])c(N)c(C(=O)NC3CCCC3)n2)c1`, the Drug metabolism [24] is reported as “metabolite_detected”, the Drug metabolism [25] is reported as “metabolite_detected” and the Drug metabolism [26] is reported as “metabolite_detected”.
